Data: patent US8153614B2, “Treatment of osteoarthritis” (Glycoscience Laboratories, Inc., priority 2006, dated 2012)

Test system: C57BL/6 mice, which spontaneously develop osteoarthritis
Test: Macroscopic examination (India ink) of knee joint cartilage in the spontaneous osteoarthritis mouse model
Format: in vivo
Settings: oral HA4 100 mg/10 ml/kg once daily for 2 weeks
Method: In this example, HA4 was administered to C57BL/6 mice, which spontaneously develop osteoarthritis, to examine effects thereof.
20-week-old male C57BL/6 mice were purchased from Charles River Laboratories Japan, Inc., and animals which developed osteoarthritis were used. The animals were divided into the negative control (treated with physiological saline) group and the oral HA4 (100 mg/10 ml/kg) treated group.
In this example, 10 mg/ml HA4 was prepared. Specifically, HA4 was prepared by the method of Tawada et al. (Tawada A, Masa T, Oonuki Y, Watanabe A, Matsuzaki Y, Asari A. Large-scale preparation, purification, and characterization of hyaluronan oligosaccharides from 4-mers to 52-mers. Glycobiology. 2002; 12(7): 421-6.), and the concentration was adjusted with physiological saline. Furthermore, physiological saline was prepared as a control.
In this example, the test substance or physiological saline was orally given to mice which developed osteoarthritis using an oral sonde once daily for 2 weeks.
Osteoarthritis curing effects were determined macroscopically. […] For this evaluation method, refer to Chang D G, Iverson E P, Schinagl R M, Sonoda M, Amiel D, Coutts R D, Sah R L. Quantitation and localization of cartilage degeneration following the induction of osteoarthritis in the rabbit knee. […]

Q: Which results are given for tetrasaccharide hyaluronan [HA4]?
A: Therapeutic effects against osteoarthritis: therapeutic effects against osteoarthritis were confirmed; MEAN score (remaining India ink) (saline control mean 4.8): MEAN 1.4
